Source: patent US8143259B2, “Cold menthol receptor antagonists” (Janssen Pharmaceutica, NV, priority 2008, dated 2012)
Where “and” joins values, the source holds several entries; their conditions need not be identical. Equal values may be shown once. One block for each molecule: values may come before it.

Molecular target: T1, canine TRPM8 (Canis lupus familiaris, UniProt Q1A7N1)
T1 construct: expressed in transfected cells
Test: In Vitro Canine TRPM8 Functional Assay (Ca2+ fluorescence, icilin activation)
Assay type: cell-based
Conditions: for inhibition at 0.5 µM: HEK293, 0.5 μM compound; for inhibition at 0.5 µM / % Inh @ 0.2 μM / inhibition at 0.2 µM / % Inh @ 0.5 μM / inhibition at 1 µM / % Inh @ 1 μM: canine TRPM8 HEK293, icilin; for IC50: HEK293 cells stably expressing canine TRPM8, icilin activation, Ca2+ fluorescence; for % Inh @ 0.2 μM: 0.2 μM compound; for inhibition at 0.2 µM: HEK293, 0.2 μM compound; for % Inh @ 0.5 μM: 0.5 μM compound; for inhibition at 1 µM: HEK293, 1 μM compound; for % Inh @ 1 μM: 1 μM compound
Protocol: The functional activity of compounds of the formula (I) was determined by measuring changes in intracellular calcium concentration using a Ca^2+-sensitive fluorescent dye. The changes in fluorescent signal were monitored by a fluorescence plate reader, either a FLIPR™ (Molecular Devices) or FDSS (Hamamatsu). Increases in intracellular Ca^2+ concentration were readily detected upon activation with icilin.
HEK293 cells stably expressing canine TRPM8 were routinely grown as monolayers in Dulbecco's minimum essential medium supplemented with 10% FBS, 2 mM L-glutamine, 100 units/mL penicillin, 100 ug/mL streptomycin and 400 μg/mL G418. Cells were maintained in 5% CO2 at 37° C. At 24 hrs prior to assay, cells were seeded in black wall, clear-base poly-D-lysine coated 384-well plates (BD Biosciences, NJ, USA) at a density of 5,000 cells per well in culture medium and grown overnight in 5% CO2 at 37° C. On assay day, growth media was removed and cells were loaded with Calcium 3 Dye (Molecular Devices) for 35 min at 37° C., under 5% CO2 and then for 25 min at room temperature and atmosphere. Subsequently, cells were tested for agonist-induced increases in intracellular Ca^2+ levels using FLIPR™ or FDSS. Cells were challenged with compounds of the formula (I) (at varying concentrations) and intracellular Ca^2+ was measured for 5 min prior to the addition of icilin to all wells to achieve a final concentration that produces approximately an 80% maximal response.
Maximal fluorescence intensity (FI) achieved upon addition of icilin was exported from the FLIPR or FDSS software and further analyzed using GraphPad Prism 3.02 (Graph Pad Software Inc., CA, U.S.A.). Basal FI was subtracted prior to normalizing data to percent of maximal response. Curves were generated using the average of quadruplicate wells for each data point, were analyzed using nonlinear regression of either sigmoidal dose response or sigmoidal dose response (variable slope).

T1 sequence (Q1A7N1 1-1104): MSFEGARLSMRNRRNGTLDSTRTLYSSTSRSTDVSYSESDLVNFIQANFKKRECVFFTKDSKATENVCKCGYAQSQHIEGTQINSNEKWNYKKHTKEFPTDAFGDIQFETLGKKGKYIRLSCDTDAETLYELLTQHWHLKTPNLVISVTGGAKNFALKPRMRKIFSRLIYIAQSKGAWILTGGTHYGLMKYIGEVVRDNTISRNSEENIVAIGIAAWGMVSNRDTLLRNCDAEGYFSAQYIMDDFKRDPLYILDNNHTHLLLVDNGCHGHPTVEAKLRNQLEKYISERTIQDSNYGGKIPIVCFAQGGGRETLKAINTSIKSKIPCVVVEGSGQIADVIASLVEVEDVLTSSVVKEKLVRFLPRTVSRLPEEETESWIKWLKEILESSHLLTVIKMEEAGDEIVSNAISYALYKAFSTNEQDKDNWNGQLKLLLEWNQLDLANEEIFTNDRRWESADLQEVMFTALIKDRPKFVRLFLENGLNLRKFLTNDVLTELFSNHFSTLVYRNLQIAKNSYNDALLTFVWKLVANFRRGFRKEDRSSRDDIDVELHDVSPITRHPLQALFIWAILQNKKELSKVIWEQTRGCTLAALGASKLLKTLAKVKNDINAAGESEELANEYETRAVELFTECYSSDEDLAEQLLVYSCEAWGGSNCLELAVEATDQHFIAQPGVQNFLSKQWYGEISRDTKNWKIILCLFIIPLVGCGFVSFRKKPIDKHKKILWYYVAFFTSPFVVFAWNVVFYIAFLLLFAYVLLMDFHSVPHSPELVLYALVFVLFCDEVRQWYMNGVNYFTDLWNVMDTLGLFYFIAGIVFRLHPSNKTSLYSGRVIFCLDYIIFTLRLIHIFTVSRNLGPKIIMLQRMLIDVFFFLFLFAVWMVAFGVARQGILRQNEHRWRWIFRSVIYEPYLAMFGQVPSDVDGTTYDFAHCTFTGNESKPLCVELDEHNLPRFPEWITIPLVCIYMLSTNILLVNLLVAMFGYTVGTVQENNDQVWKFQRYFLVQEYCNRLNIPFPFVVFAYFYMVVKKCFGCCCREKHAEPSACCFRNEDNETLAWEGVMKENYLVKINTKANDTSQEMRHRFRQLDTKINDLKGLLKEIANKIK

SMILES: O=C(C(Nc1ccccc1)c1cccnc1)N1Cc2ccccc2C1 (racemic) [Cpd 215]
- % Inh @ 0.2 μM: 18%

SMILES: O=C(C(Nc1ccccc1)c1ccccn1)N1Cc2ccccc2C1 (racemic) [Cpd 216]
- % Inh @ 0.2 μM: 32%

SMILES: O=C(C(Nc1ccccc1)c1ccccn1)N1CCCC1c1ccccc1F (racemic) [Cpd 218]
- % Inh @ 0.2 μM (0.2 µM): 49%

SMILES: Cn1cc(C(Nc2ccccc2F)C(=O)N2CCCC2c2ccccc2F)c2ccccc21 (racemic) [Cpd 250]
- % Inh @ 0.2 μM: 25%

SMILES: O=C(C(Nc1ccccc1F)c1ccc(Br)cc1)N1CCCC1c1cccnc1 (racemic) [Cpd 269]
- % Inh @ 0.2 μM: 47%

SMILES: O=C(C(Nc1ccccc1F)c1ccc2c(c1)CCO2)N1CCCC1c1cccnc1 (racemic) [Cpd 282]
- % Inh @ 0.2 μM: 17%

SMILES: CN1CCN(NC(=O)[C@H](Nc2ccccc2)c2ccc(C(C)(C)C)cc2)[C@H](c2ccccc2)C1 (relative stereo) [Cpd 56, (2RS*)-2-(4-tert-Butyl-phenyl)-N-[(2RS*)-4-methyl-2-phenyl-piperazin-1-yl]-2-phenylamino-acetamide]
- % Inh @ 0.5 μM: 26%

SMILES: CC(C)(C)c1ccc(C(Nc2ccccc2)C(=O)N2CCCC2c2ccccc2Cl)cc1 (single isomer, unassigned) [Cpd 1]
- inhibition at 1 µM: 101%
- IC50: 0.313 µM

SMILES: CC(C)(C)c1ccc(C(Nc2ccccc2)C(=O)N2CCCC2c2ccc(Cl)cc2)cc1 (single isomer, unassigned) [Cpd 7]
- % Inh @ 1 μM: 89.12%
- IC50: 0.636 µM

SMILES: CC(C)(C)c1ccc(C(Nc2ccccc2)C(=O)N2CCCC2c2cccc(Cl)c2)cc1 (single isomer, unassigned) [Cpd 8]
- inhibition at 1 µM: 86.6%
- IC50: 0.778 µM

SMILES: CC(C)(C)c1ccc(C(Nc2ccccc2)C(=O)N2CCCC2c2cccc(Cl)c2)cc1 (single isomer, unassigned) [Cpd 9]
- % Inh @ 1 μM: 102.98%
- IC50: 0.161 µM

SMILES: CC(C)(C)c1ccc(C(Nc2ccccc2)C(=O)N2CCC[C@H]2CNc2ccccc2)cc1 (single isomer, unassigned) [Cpd 10]
- inhibition at 1 µM: 102%
- IC50: 0.517 µM

SMILES: O=C(C(Nc1ccccc1)c1ccc(C(F)(F)F)cc1)N1CCCC1c1ccccc1Cl (single isomer, unassigned) [Cpd 21]
- inhibition at 0.5 µM: 103%
- IC50: 0.175 µM

SMILES: O=C(C(Nc1ccccc1)c1ccc(C(F)(F)F)cc1)N1CCCC1c1ccccc1Cl (single isomer, unassigned) [Cpd 22]
- % Inh @ 0.5 μM (0.5 µM): 102.36%
- IC50: 0.378 µM

SMILES: O=C(C(Nc1ccccc1)c1ccc(C(F)(F)F)cc1)N1CCCC1c1ccccc1C(F)(F)F (single isomer, unassigned) [Cpd 30]
- inhibition at 0.5 µM: 103%
- IC50: 0.11 µM

SMILES: O=C(C(Nc1ccccc1)c1ccc(C(F)(F)F)cc1)N1CCCC1c1ccccc1F (single isomer, unassigned) [Cpd 45]
- inhibition at 0.5 µM: 101%
- IC50: 0.105 µM

SMILES: O=C(C(Nc1ccccc1)c1ccc(C(F)(F)F)cc1)N1CCCC1c1ccccc1F (single isomer, unassigned) [Cpd 47]
- % Inh @ 0.5 μM (0.5 µM): 99.791%
- IC50: 0.2 µM

SMILES: O=C(C(Nc1ccccc1)c1ccc(C(F)(F)F)cc1)N1CCCC1c1ccccc1F (single isomer, unassigned) [Cpd 48]
- % Inh @ 0.5 μM (0.5 µM): 85.869%
- IC50: 0.219 µM

SMILES: O=C(C(Nc1ccccc1)c1ccc(C(F)(F)F)cc1)N1CCCC1c1ccccc1Cl (single isomer, unassigned) [Cpd 61]
- % Inh @ 0.5 μM (0.5 µM): 103.2%
- IC50: 0.168 µM

SMILES: O=C(C(Nc1ccc(F)cc1)c1ccc(C(F)(F)F)cc1)N1CCCC1c1ccccc1 (single isomer, unassigned) [Cpd 76]
- % Inh @ 0.5 μM (0.5 µM): 97%
- IC50: 0.101 µM

SMILES: O=C(C(Nc1ccccc1F)c1ccc(C(F)(F)F)cc1)N1CCCC1c1ccccc1F (single isomer, unassigned) [Cpd 154]
- % Inh @ 0.5 μM (0.5 µM): 97.552%
- IC50: 0.104 µM

SMILES: O=C(C(Nc1ccccc1F)c1ccc(Cl)cc1)N1CCCC1c1ccccc1F (single isomer, unassigned) [Cpd 157]
- inhibition at 0.5 µM: 93%
- IC50: 0.146 µM

SMILES: O=C(C(Nc1ccccc1F)c1ccc(Br)cc1)N1CCCC1c1ccccc1F (single isomer, unassigned) [Cpd 159]
- inhibition at 0.2 µM: 97%
- inhibition at 0.5 µM: 94%
- IC50: 0.109 µM and 0.038 µM

SMILES: O=C(C(Nc1ccccc1F)c1ccc(Br)cc1)N1CCCC1c1ccccc1F (single isomer, unassigned) [Cpd 160]
- % Inh @ 0.2 μM (0.2 µM): 87%
- % Inh @ 0.5 μM (0.5 µM): 95%
- IC50: 0.039 µM and 0.013 µM

SMILES: O=C(C(Nc1c(F)cccc1F)c1ccc(Br)cc1)N1CCCC1c1ccccc1F (single isomer, unassigned) [Cpd 161]
- inhibition at 0.2 µM: 98%
- inhibition at 0.5 µM: 93%
- IC50: 0.063 µM and 0.036 µM

SMILES: O=C(C(Nc1cccc(F)c1F)c1ccc(Cl)cc1)N1CCCC1c1ccccc1F (single isomer, unassigned) [Cpd 163]
- inhibition at 0.5 µM: 94%
- IC50: 0.145 µM

Other lines, results leading:

- inhibition at 0.5 µM: 97%
- IC50: 0.007 µM
SMILES: COc1ccccc1C1CCCN1C(=O)C(Nc1ccccc1F)c1ccc(Br)cc1 (racemic) [Cpd 90]

- inhibition at 0.2 µM: 87%
- IC50: 0.025 µM
SMILES: O=C(C(Nc1ccccc1F)c1cc2cccnc2s1)N1CCCC1c1ccccc1F (racemic) [Cpd 320]

- % Inh @ 0.5 μM: 101%
- IC50: 0.0362 µM
SMILES: O=C([C@@H](CNc1ccccc1)c1ccc(C(F)(F)F)cc1)N1CCC[C@@H]1c1ccccc1 (relative stereo) [Cpd 130, 3-Phenylamino-1-[(2RS*)2-phenyl-pyrrolidin-1-yl]-(2RS*)-2-(4-trifluoromethyl-phenyl)-propan-1-one]

- % Inh @ 1 μM: 100.93%
- IC50: 0.0726 µM
SMILES: CC(C)(C)c1ccc(C(Nc2ccccc2)C(=O)N2CCCC2c2ccccc2Cl)cc1 (single isomer, unassigned) [Cpd 2]

- % Inh @ 0.5 μM (0.5 µM): 103.39%
- IC50: 0.0172 µM
SMILES: O=C(C(Nc1ccccc1)c1ccc(C(F)(F)F)cc1)N1CCCC1c1ccccc1Cl (single isomer, unassigned) [Cpd 23]

- % Inh @ 0.5 μM (0.5 µM): 104.03%
- IC50: 0.0485 µM
SMILES: O=C(C(Nc1ccccc1)c1ccc(C(F)(F)F)cc1)N1CCCC1c1ccccc1C(F)(F)F (single isomer, unassigned) [Cpd 31]

- % Inh @ 0.5 μM (0.5 µM): 101.53%
- IC50: 0.00746 µM
SMILES: O=C(C(Nc1ccccc1)c1ccc(C(F)(F)F)cc1)N1CCCC1c1ccccc1F (single isomer, unassigned) [Cpd 46]

- % Inh @ 0.5 μM (0.5 µM): 103.24%
- IC50: 0.0414 µM
SMILES: O=C(C(Nc1ccccc1)c1ccc(C(F)(F)F)cc1)N1CCCC1c1ccccc1Cl (single isomer, unassigned) [Cpd 60]

- inhibition at 0.5 µM: 98%
- IC50: 0.02 µM
SMILES: O=C(C(Nc1ccc(F)cc1)c1ccc(C(F)(F)F)cc1)N1CCCC1c1ccccc1 (single isomer, unassigned) [Cpd 75]

- inhibition at 0.5 µM: 98%
- IC50: 0.0209 µM
SMILES: O=C(C(Nc1ccccc1F)c1ccc(C(F)(F)F)cc1)N1CCCC1c1cccc(F)c1 (single isomer, unassigned) [Cpd 133]

- inhibition at 0.5 µM: 101%
- IC50: 0.0613 µM
SMILES: O=C([C@@H](Nc1ccccc1F)c1ccc(C(F)(F)F)cc1)N1CCC[C@H]1c1ccccc1F (single isomer, unassigned) [Cpd 152]

- % Inh @ 0.2 μM (0.2 µM): 100%
- % Inh @ 0.5 μM (0.5 µM): 99%
- IC50: 0.00545 µM
SMILES: O=C(C(Nc1c(F)cccc1F)c1ccc(Br)cc1)N1CCCC1c1ccccc1F (single isomer, unassigned) [Cpd 162]

- % Inh @ 0.5 μM (0.5 µM): 96%
- IC50: 0.026 µM
SMILES: O=C(C(Nc1cccc(F)c1F)c1ccc(Cl)cc1)N1CCCC1c1ccccc1F (single isomer, unassigned) [Cpd 164]
